In the supplement of paper PMC7455731:

Experiment: collision cross section (DTIM-MS, N2); higher = larger ion
Experimental: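 Collision cross section (CCS) of drug and natural-product chemical standards (validation set 2, measured in this paper). Three independent measurements were made across 2 months; the value taken is their mean (avg_ccs), for the ion adduct given.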

With C=CCc1cc(OC)c(OC)c(OC)c1 [Elemicin] the collision cross section (ion adduct: [M+H]+) was 144.76 Å².
With Cc1cc(O)c2c(c1)C(=O)c1cc(O)cc(O)c1C2=O [Emodin] the collision cross section (ion adduct: [M+H]+) was 156.69 Å² and the collision cross section (ion adduct: [M-H]-) was 155.06 Å².
Work on CCOc1cc(NC(C)=O)ccc1C(=O)OC [Ethopabate] yielded a collision cross section (ion adduct: [M+H]+) of 151.13 Å² and a collision cross section (ion adduct: [M-H]-) of 158.16 Å².
CCOC(=O)c1ccc(O)c(OC)c1 [Ethyl Vanillate] showed a collision cross section (ion adduct: [M-H]-) of 144.12 Å².
For CCOC(=O)c1cc2ccccc2oc1=O [Ethyl coumarin-3-carboxylate], the collision cross section (ion adduct: [M+H]+) was 141.92 Å².
CCOc1cc(C=O)ccc1O [Ethyl vanillin] gave a collision cross section (ion adduct: [M-H]-) of 133.69 Å².
Molecule COc1cc([C@@H]2c3cc4c(cc3[C@@H](O[C@@H]3O[C@@H]5CO[C@@H](C)O[C@H]5[C@H](O)[C@H]3O)C3COC(=O)C32)OCO4)cc(OC)c1O (stereo partly drawn) [Etoposide] has a collision cross section (ion adduct: [M+H]+) of 250.54 Å².
With COc1ccc(C=CC(=O)c2c(O)cc(OC)cc2OC)cc1 [Flavokawain A] the collision cross section (ion adduct: [M+H]+) was 176.36 Å² and the collision cross section (ion adduct: [M-H]-) was 184.75 Å².
Molecule O=C(O)c1ccccc1Nc1cccc(C(F)(F)F)c1 [Flufenamic acid] has a collision cross section (ion adduct: [M+H]+) of 159.39 Å² and a collision cross section (ion adduct: [M-H]-) of 160.69 Å².
With Nc1[nH]c(=O)ncc1F [Fluorocytosine] the collision cross section (ion adduct: [M+H]+) was 119.97 Å².
Work on Nc1ccn([C@@H]2O[C@H](CO)[C@@H](O)C2(F)F)c(=O)n1 [Gemcitabine] yielded a collision cross section (ion adduct: [M+H]+) of 155.86 Å².
With COC(=O)C1=CO[C@@H](O[C@@H]2O[C@H](CO)[C@@H](O)[C@H](O)[C@H]2O)[C@@H]2C(CO)=CC[C@H]12 [Geniposide] the collision cross section (ion adduct: [M-H]-) was 184.6 Å².
Molecule O=C(O)C1=CO[C@@H](O[C@@H]2O[C@H](CO)[C@@H](O)[C@H](O)[C@H]2O)[C@@H]2C(CO)=CC[C@H]12 [Geniposidic acid] has a collision cross section (ion adduct: [M-H]-) of 184.17 Å².
For O=c1c(-c2ccc(O)cc2)coc2cc(O[C@@H]3O[C@H](CO)[C@@H](O)[C@H](O)[C@H]3O)cc(O)c12 [Genistin], the collision cross section (ion adduct: [M+H]+) was 207.07 Å² and the collision cross section (ion adduct: [M-H]-) was 213.76 Å².
COc1cc(O)c2c(=O)cc(-c3ccc(O)cc3)oc2c1 [Genkwanin] gave a collision cross section (ion adduct: [M+H]+) of 163.54 Å² and a collision cross section (ion adduct: [M-H]-) of 166.12 Å².
With CC(C)=C1C/C=C(\C)CC/C=C(\C)CC1=O [Germacrone] the collision cross section (ion adduct: [M+H]+) was 149.53 Å².
Work on C=C1C[C@]23C[C@@]1(O)CC[C@H]2[C@@]12C=C[C@H](O)[C@@](C)(C(=O)O1)[C@H]2[C@@H]3C(=O)O [Gibberellic acid] yielded a collision cross section (ion adduct: [M-H]-) of 177.69 Å².
In the case of CCCCCCCCCCCCCCCc1cccc(O)c1C(=O)O [Ginkgolic<U+00A0>Acid<U+00A0>C15:0<U+00A0>], the collision cross section (ion adduct: [M-H]-) is reported as 190.92 Å².
With CC(C)=CCC[C@](C)(O[C@@H]1O[C@H](CO)[C@@H](O)[C@H](O)[C@H]1O)[C@H]1CC[C@]2(C)[C@@H]1[C@H](O)C[C@@H]1[C@@]3(C)CC[C@H](O)C(C)(C)[C@@H]3CC[C@]12C [Ginsenoside Compound K] the collision cross section (ion adduct: [M-H]-) was 257.91 Å².
CC(C)=CCC[C@](C)(O[C@@H]1O[C@H](CO)[C@@H](O)[C@H](O)[C@H]1O)[C@H]1CC[C@]2(C)[C@@H]1[C@H](O)C[C@@H]1[C@@]3(C)CC[C@H](O)C(C)(C)[C@@H]3[C@@H](O)C[C@]12C [Ginsenoside F1] gave a collision cross section (ion adduct: [M-H]-) of 259.18 Å².
Work on CC(C)=CCC[C@](C)(O)[C@H]1CC[C@]2(C)[C@@H]1[C@H](O)C[C@@H]1[C@@]3(C)CC[C@H](O)C(C)(C)[C@@H]3[C@@H](O[C@@H]3O[C@H](CO)[C@@H](O)[C@H](O)[C@H]3O)C[C@]12C [Ginsenoside Rh1] yielded a collision cross section (ion adduct: [M-H]-) of 266.62 Å².
Work on CC1(C)CC[C@]2(C(=O)O[C@@H]3O[C@H](CO)[C@@H](O)[C@H](O)[C@H]3O)CC[C@]3(C)C(=CC[C@@H]4[C@@]5(C)CC[C@H](O[C@@H]6O[C@H](C(=O)O)[C@@H](O)[C@H](O)[C@H]6O[C@@H]6O[C@H](CO)[C@@H](O)[C@H](O)[C@H]6O)C(C)(C)[C@@H]5CC[C@]43C)[C@@H]2C1 [Ginsenoside Ro] yielded a collision cross section (ion adduct: [M-H]-) of 310.46 Å².
Work on CC1(C)C=Cc2c(ccc3c2OC[C@@H](c2ccc(O)cc2O)C3)O1 [Glabridin] yielded a collision cross section (ion adduct: [M+H]+) of 180.63 Å² and a collision cross section (ion adduct: [M-H]-) of 184.46 Å².
With CC1(C)[C@@H](O[C@H]2O[C@H](C(=O)O)[C@@H](O)[C@H](O)[C@H]2OC2O[C@H](C(=O)O)[C@@H](O)[C@H](O)[C@H]2O)CC[C@]2(C)[C@H]3C(=O)C=C4[C@@H]5C[C@@](C)(C(=O)O)CC[C@]5(C)CC[C@@]4(C)[C@]3(C)CC[C@@H]12 (stereo partly drawn) [Glycyrrhizic acid] the collision cross section (ion adduct: [M+H]+) was 287.67 Å² and the collision cross section (ion adduct: [M-H]-) was 281.13 Å².
For O=C1CCc2ccccc2O1 [Hydrocoumarin], the collision cross section (ion adduct: [M-H]-) was 127.47 Å².
With COc1ccc2c(c1)c(CC(=O)O)c(C)n2C(=O)c1ccc(Cl)cc1 [Indometacin] the collision cross section (ion adduct: [M+H]+) was 181.26 Å².
CC1=CC23C(=O)C(C=C(CO)C(O)C2(O)C1O)C1C(CC3C)C1(C)C (stereo not drawn) [Ingenol] gave a collision cross section (ion adduct: [M-H]-) of 184.41 Å².
Molecule CC(C)NC(=O)N1CC(=O)N(c2cc(Cl)cc(Cl)c2)C1=O [Iprodione] has a collision cross section (ion adduct: [M+H]+) of 180.27 Å².
For CC=Cc1ccc(O)c(OC)c1 [Isoeugenol], the collision cross section (ion adduct: [M-H]-) was 138.02 Å².
For COc1ccc(-c2cc(=O)c3c(O)cc(O)c(-c4cc(-c5cc(=O)c6c(O)cc(O)cc6o5)ccc4OC)c3o2)cc1 [Isoginkgetin], the collision cross section (ion adduct: [M+H]+) was 231.51 Å² and the collision cross section (ion adduct: [M-H]-) was 230.78 Å².
In the case of COc1ccc(CC2c3cc(Oc4cc(CC5c6cc(O)c(OC)cc6CCN5C)ccc4O)c(OC)cc3CCN2C)cc1 (stereo not drawn) [Isoliensinine], the collision cross section (ion adduct: [M+H]+) is reported as 238.39 Å² and the collision cross section (ion adduct: [M-H]-) is reported as 232.33 Å².
COc1cc(C2Oc3ccc(C4Oc5cc(O)cc(O)c5C(=O)C4O)cc3OC2CO)ccc1O (stereo not drawn) [Isosilybin] gave a collision cross section (ion adduct: [M+H]+) of 214.42 Å².
For C[C@@]12CCC3[C@@](CC[C@@H]4[C@](C)(C(=O)O)CCC[C@@]34C)(CC1=O)C2 (stereo partly drawn) [Isosteviol], the collision cross section (ion adduct: [M+H]+) was 180.22 Å² and the collision cross section (ion adduct: [M-H]-) was 180.18 Å².
In the case of COC1=CC(=O)O[C@@H](/C=C/c2ccccc2)C1 [Kawain], the collision cross section (ion adduct: [M+H]+) is reported as 150.52 Å².
C=CC(C)(C)c1cc(/C=C/C(=O)c2ccc(O)cc2)c(OC)cc1O [Licochalcone A] gave a collision cross section (ion adduct: [M+H]+) of 191.26 Å² and a collision cross section (ion adduct: [M-H]-) of 194.56 Å².
In the case of COc1c(C=CC(=O)c2ccc(O)cc2)ccc(O)c1O [Licochalcone B], the collision cross section (ion adduct: [M+H]+) is reported as 170.36 Å² and the collision cross section (ion adduct: [M-H]-) is reported as 171.14 Å².
Molecule O=C1C[C@@H](c2ccc(O)cc2)Oc2cc(O)ccc21 [Liquiritigenin] has a collision cross section (ion adduct: [M+H]+) of 162 Å² and a collision cross section (ion adduct: [M-H]-) of 161.75 Å².
Work on O=c1cc(-c2ccc(O)c(O)c2)oc2cc(O[C@@H]3O[C@H](CO)[C@@H](O)[C@H](O)[C@H]3O)cc(O)c12 [Luteolin-7-O-glucoside] yielded a collision cross section (ion adduct: [M+H]+) of 209.01 Å² and a collision cross section (ion adduct: [M-H]-) of 210.14 Å².
Molecule OC[C@@H](O)[C@@H](O[C@H]1O[C@H](CO)[C@@H](O)[C@H](O)[C@H]1O)[C@H](O)[C@@H](O)CO [Maltitol] has a collision cross section (ion adduct: [M-H]-) of 169.57 Å².
With Cc1cccc(Nc2ccccc2C(=O)O)c1C [Mefenamic acid] the collision cross section (ion adduct: [M+H]+) was 154.75 Å².
In the case of CNC[C@H](O)[C@@H](O)[C@H](O)[C@H](O)CO [Meglumine], the collision cross section (ion adduct: [M+H]+) is reported as 141.05 Å² and the collision cross section (ion adduct: [M-H]-) is reported as 139.8 Å².
COC(=O)/C=C/c1ccc(O)cc1 [Methyl 4-hydroxycinnamate] showed a collision cross section (ion adduct: [M-H]-) of 139.5 Å².
With COC(=O)c1cc(OC)c(O)c(OC)c1 [Methyl syringate] the collision cross section (ion adduct: [M-H]-) was 146.35 Å².
Molecule NC(=O)c1ncn([C@@H]2O[C@H](CO)[C@@H](O)[C@H]2O)c1O [Mizoribine] has a collision cross section (ion adduct: [M-H]-) of 155.14 Å².
In the case of C[C@@H]1O[C@@H](Oc2c(-c3cc(O)c(O)c(O)c3)oc3cc(O)cc(O)c3c2=O)[C@H](O)[C@H](O)[C@H]1O [Myricitrin], the collision cross section (ion adduct: [M-H]-) is reported as 199.23 Å².
In the case of COc1cc(C=CC(=O)NCCc2ccc(O)cc2)ccc1O [N-trans-Feruloyltyramine], the collision cross section (ion adduct: [M+H]+) is reported as 181.28 Å² and the collision cross section (ion adduct: [M-H]-) is reported as 176.36 Å².
CC1CCC=C2C(=O)CC3OOC(C)(C)C3C21C (stereo not drawn) [Nardosinone] gave a collision cross section (ion adduct: [M-H]-) of 156.3 Å².
Molecule COc1ccc(CC2c3cc(Oc4cc(CC5c6cc(OC)c(OC)cc6CCN5C)ccc4O)c(OC)cc3CCN2C)cc1 (stereo not drawn) [Neferine] has a collision cross section (ion adduct: [M+H]+) of 242.9 Å² and a collision cross section (ion adduct: [M-H]-) of 252.96 Å².
Molecule COc1ccc([C@@H]2CC(=O)c3c(O)cc(O[C@@H]4O[C@H](CO)[C@@H](O)[C@H](O)[C@H]4O[C@@H]4O[C@@H](C)[C@H](O)[C@@H](O)[C@H]4O)cc3O2)cc1O [Neohesperidin] has a collision cross section (ion adduct: [M-H]-) of 229.5 Å².
COc1ccc(CCC(=O)c2c(O)cc(O[C@@H]3O[C@H](CO)[C@@H](O)[C@H](O)[C@H]3O[C@@H]3O[C@@H](C)[C@H](O)[C@@H](O)[C@H]3O)cc2O)cc1O [Neosperidin dihydrochalcone] showed a collision cross section (ion adduct: [M+H]+) of 233.96 Å².
Molecule NC(=O)c1cccnc1 [Nicotinamide] has a collision cross section (ion adduct: [M+H]+) of 125.25 Å².
Molecule CC(=O)OC5CC(=O)O[C@@](C)(C)[C@@H]6CC(=O)[C@]3(C)[C@H](CC[C@@]2(C)[C@@H](OC(=O)[C@H]1O[C@]123)c4ccoc4)[C@@]56C (stereo partly drawn) [Nomilin] has a collision cross section (ion adduct: [M+H]+) of 217.15 Å² and a collision cross section (ion adduct: [M-H]-) of 219.9 Å².
Work on COc1cc2c3c(c1OC)-c1ccccc1C[C@H]3N(C)CC2 [Nuciferine] yielded a collision cross section (ion adduct: [M+H]+) of 172.41 Å².
For COc1c(O)c(C)cc2c1C(=O)c1c(O)cccc1C2=O [Obtusifolin], the collision cross section (ion adduct: [M+H]+) was 158.75 Å² and the collision cross section (ion adduct: [M-H]-) was 160.85 Å².
In the case of C/C=C1/[C@H](O[C@@H]2O[C@H](CO)[C@@H](O)[C@H](O)[C@H]2O)OC=C(C(=O)OC)[C@H]1CC(=O)OCCc1ccc(O)c(O)c1 [Oleuropein], the collision cross section (ion adduct: [M-H]-) is reported as 217.92 Å².
With O=C(Nc1ccc(O)cc1)c1ccccc1O [Osalmid] the collision cross section (ion adduct: [M+H]+) was 151.37 Å² and the collision cross section (ion adduct: [M-H]-) was 150.88 Å².
Molecule CC1(C)CCC[C@](C)([C@H]2CC[C@]3(C)[C@@H]2[C@H](O)C[C@@H]2[C@@]4(C)CC[C@H](O)C(C)(C)[C@@H]4CC[C@]23C)O1 [Panaxadiol] has a collision cross section (ion adduct: [M+H]+) of 218.82 Å².
